Assay results reported in US5879659A, “Ternary radiopharmaceutical complexes” (DuPont Pharmaceuticals Company, priority 1997, dated 1999).

System: thrombi
Test: Canine Arteriovenous Shunt model
Format: in vivo, dog
Settings: first 1 hour shunt period, 150 μCi/kg, i.v.
Protocol: Canine Arteriovenous Shunt Model: Adult mongrel dogs of either sex (9-13 kg) were anesthetized with pentobarbital sodium (35 mg/kg,i.v.) and ventilated with room air via an endotracheal tube (12 strokes/min, 25 ml/kg). For arterial pressure determination, the left carotid artery was cannulated with a saline-filled polyethylene catheter (PE-240) and connected to a Statham pressure transducer (P23ID; Oxnard, Calif.). Mean arterial blood pressure was determined via damping the pulsatile pressure signal. Heart rate was monitored using a cardiotachometer (Biotach, Grass Quincy, Mass.) triggered from a lead II electrocardiogram generated by limb leads. A jugular vein was cannulated (PE-240) for drug administration. The both femoral arteries and femoral veins were cannulated with silicon treated (Sigmacote, Sigma Chemical Co. St Louis, Mo.), saline filled polyethylene tubing (PE-200) and connected with a 5 cm section of silicon treated tubing (PE-240) to form an extracorporeal arterio-venous shunts (A-V). Shunt patency was monitored using a doppler flow system (model VF-1, Crystal Biotech Inc, Hopkinton, Mass.) and flow probe (2-2.3 mm, Titronics Med. Inst., Iowa City, Iowa) placed proximal to the locus of the shunt. All parameters were monitored continuously on a polygraph recorder (model 7D Grass) at a paper speed of 10 mm/min or 25 mm/sec.
On completion of a 15 min post surgical stabilization period, an occlusive thrombus was formed by the introduction of a thrombogenic surface (4-0 braided silk thread, 5 cm in length, Ethicon Inc., Somerville, N.J.) into the shunt one shunt with the other serving as a control. Two consecutive 1 hr shunt periods were employed with the test agent administered as an infusion over 5 min beginning 5 min before insertion of the thrombogenic surface. At the end of each 1 hr shunt period the silk was carefully removed and weighed and the % incorporation determined via well counting. Thrombus weight was calculated by subtracting the weight of the silk prior to placement from the total weight of the silk on removal from the shunt. […]

## ^99m Tc(tricine) (tris(1-pyrazolyl)borohydride)-Cyclo(D-Val-NMeArg-Gly-Asp-Mamb(hydrazino-nicotinyl-5-Aca)) [Example 1]
Mixed arterial and venous conditions
  uptake in thrombi compared with positive control (In-111-platelets) and negative controls (Tc-99m-albumin, I-125-fibrinogen): taken up in thrombi under both mixed arterial and venous conditions equivalently to the positive control and to a significantly greater extent than the negative controls
Mixed arterial conditions
  thrombus-to-blood ratio (target-to-background ratio): 114
Venous conditions
  thrombus-to-blood ratio (target-to-background ratio): 3.1
